Data reported in article PMC10233829 (ACS Omega, 2023).
In brackets after ≈: the same amount, converted by molar mass.

Legend:
[1] = system: K. pneumoniae 510; experiment: MIC, twofold microdilution, clinical strain; type: cell-based, Klebsiella pneumoniae; settings: Klebsiella pneumoniae, 510; clinical strain, 18 h
[2] = system: S. epidermidis 4341; experiment: MIC, twofold microdilution, clinical strain; type: cell-based; settings: Staphylococcus epidermidis, 18 h
[3] = system: S. aureus T5595; experiment: MIC, twofold microdilution, clinical strain; type: cell-based, Staphylococcus aureus; settings: for MIC: Staphylococcus aureus, T5595, 18 h
[4] = system: M. tuberculosis Spec. 192; experiment: Tuberculostatic activity, Microplate Alamar Blue Assay (MIC); type: cell-based; settings: Mycobacterium tuberculosis, MABA, read-out: MIC M. tuberculosis Spec. 192 (sensitive to tuberculostatics)
[5] = system: E. coli ATCC 25922; experiment: MIC, twofold microdilution, standard strain; type: cell-based, Escherichia coli; settings: Escherichia coli, ATCC25922; standard strain, 18 h
[6] = system: E. coli 520; experiment: MIC, twofold microdilution, clinical strain; type: cell-based; settings: Escherichia coli, 18 h
[7] = system: E. cloacae 8; experiment: MIC, twofold microdilution, clinical strain; type: cell-based, Escherichia cloacae; settings: Enterobacter cloacae, 8; clinical strain, 18 h
[8] = system: S. aureus T5591; experiment: MIC, twofold microdilution, clinical strain; type: cell-based, Staphylococcus aureus; settings: for MIC: Staphylococcus aureus, T5591, 18 h
[9] = system: P. aeruginosa ATCC 15442; experiment: MIC, twofold microdilution, standard strain; type: cell-based, Pseudomonas aeruginosa; settings: Pseudomonas aeruginosa, ATCC15442; standard strain, 18 h
[10] = system: S. aureus 180; experiment: MIC, twofold microdilution, clinical strain; type: cell-based; settings: Staphylococcus aureus, 18 h
[11] = system: S. aureus ATCC 29213; experiment: MIC, twofold microdilution, standard strain; type: cell-based; settings: Staphylococcus aureus, ATCC29213, 18 h
[12] = system: P. aeruginosa 659; experiment: MIC, twofold microdilution, clinical strain; type: cell-based; settings: Pseudomonas aeruginosa, 18 h
[13] = system: S. pasteuri KR 4358; experiment: MIC, twofold microdilution, clinical strain; type: cell-based; settings: Staphylococcus pasteuri, KR4358, 18 h
[14] = system: E. coli 951; experiment: MIC, twofold microdilution, clinical strain; type: cell-based; settings: Escherichia coli, 18 h
[15] = system: S. epidermidis ATCC 35984; experiment: MIC, twofold microdilution, standard strain; type: cell-based; settings: Staphylococcus epidermidis, ATCC35984, 18 h
[16] = system: P. aeruginosa 37; experiment: MIC, twofold microdilution, clinical strain; type: cell-based; settings: Pseudomonas aeruginosa, 18 h
[17] = system: S. epidermidis 5253; experiment: MIC, twofold microdilution, clinical strain; type: cell-based, Staphylococcus epidermidis; settings: for MIC: Staphylococcus epidermidis, 5253, 18 h
[18] = system: M. tuberculosis Spec 210; experiment: microbe, parasite or virus in culture; type: cell-based, Mycobacterium tuberculosis; settings: M. tuberculosis Spec. 210
[19] = system: S. epidermidis KR4243/1; experiment: MIC, twofold microdilution, clinical strain; type: cell-based; settings: Staphylococcus epidermidis, 18 h
[20] = system: K. pneumoniae 28; experiment: MIC, twofold microdilution, clinical strain; type: cell-based; settings: Klebsiella pneumoniae, 18 h
[21] = system: S. aureus ATCC 6538; experiment: MIC, twofold microdilution, standard strain; type: cell-based, Staphylococcus aureus; settings: Staphylococcus aureus, ATCC6538; standard strain, 18 h
[22] = system: E. coli 600; experiment: MIC, twofold microdilution, clinical strain; type: cell-based, Escherichia coli; settings: for MIC: Escherichia coli, 600, 18 h
[23] = system: P. aeruginosa ATCC 15442 and E. coli ATCC 25922; experiment: MIC, standard Gram-negative rods as a panel; type: cell-based; settings: P. aeruginosa ATCC 15442, E. coli ATCC 25922; read-out: MIC against standard Gram-negative rods (range over strains)
[24] = system: S. aureus 5595; experiment: MIC, twofold microdilution, clinical strain; type: cell-based; settings: Staphylococcus aureus, 18 h
[25] = system: PC3 cells; experiment: MTT assay, cytotoxic activity; type: cell-based, human; settings: Homo sapiens, PC-3, 72 h, MTT, 72 h
Method: Metastatic prostate cancer (PC3) and human immortal keratinocyte (HaCaT) cell lines were purchased from the American Type Culture Collection (ATCC, Rockville, MD, USA) and cultured in MEM (minimal essential medium, Thermo Sci, USA), RPMI 1640 (Roswell Park Memorial Institute, Biowest SAS, France), and DMEM (Dulbecco’s Modified Eagle’s Medium, Biowest SAS, France). Cells were seeded in 6 mL medium in a tissue culture flask (50 mL) in a 37 °C/5% CO2 humidified incubator. […] MTT analysis was performed according to a previous study.[59] Untreated cells were used as controls. Cell absorbance results were inserted into the formula for the relative MTT level (%). It allows to calculate the viability of cells under the influence of the tested compounds. Cell viability was expressed as the percentage of MTT reduction in cells treated with tested compounds compared to the control sample. The relative MTT level was calculated using the formula [100%] = A/B × 100% where A—the test sample absorbance and B—the control sample absorbance.

[26] = system: S. epidermidis ATCC 12228; experiment: MIC, twofold microdilution, standard strain; type: cell-based; settings: Staphylococcus epidermidis, ATCC12228, 18 h
[27] = system: M. tuberculosis H37Rv; experiment: Tuberculostatic activity, Microplate Alamar Blue Assay (MIC); type: cell-based, Mycobacterium tuberculosis; settings: Mycobacterium tuberculosis, H37RV; MABA; read-out: MIC M. tuberculosis H37Rv
[28] = system: S. aureus NCTC 4163; experiment: MIC, twofold microdilution, standard strain; type: cell-based; settings: Staphylococcus aureus, NCTC4163, 18 h
[29] = MTT assay, cytotoxic activity; type: cell-based; settings: human, HaCaT cells (immortal keratinocytes); MTT, 72 h, normal cell line; read-out: IC50 HaCaT
Method: Cells were seeded in 6 mL medium in a tissue culture flask (50 mL) in a 37 °C/5% CO2 humidified incubator. […] MTT analysis was performed according to a previous study.[59] Untreated cells were used as controls. Cell absorbance results were inserted into the formula for the relative MTT level (%). It allows to calculate the viability of cells under the influence of the tested compounds. Cell viability was expressed as the percentage of MTT reduction in cells treated with tested compounds compared to the control sample. The relative MTT level was calculated using the formula [100%] = A/B × 100% where A—the test sample absorbance and B—the control sample absorbance.

[30] = system: S. aureus ATCC 25923; experiment: MIC, twofold microdilution, standard strain; type: cell-based; settings: Staphylococcus aureus, ATCC25923, 18 h
[31] = system: clinical bacterial strains; experiment: MIC, clinical isolates as groups of strains; type: cell-based; settings: for MIC: clinical strains, read-out: MIC against selected E. coli and E. cloacae strains

SMILES | MIC [1] [µg/mL] | MIC [2] [µg/mL] | MIC [3] [µg/mL] | MIC [4] [µg/mL] | MIC [5] [µg/mL] | MIC [6] [µg/mL] | MIC [7] [µg/mL] | MIC [8] [µg/mL] | MIC [9] [µg/mL] | MIC [10] [µg/mL] | MIC [11] [µg/mL] | MIC [12] [µg/mL] | MIC [13] [µg/mL] | MIC [14] [µg/mL] | MIC [15] [µg/mL] | MIC [16] [µg/mL] | MIC [17] [µg/mL] | fold more effective than the reference tuberculostatics [18] | MIC [19] [µg/mL] | MIC [20] [µg/mL] | also measured
O=C(O)c1cn(C2CC2)c2cc(N3CCN(C(=O)CBr)CC3)c(F)cc2c1=O [Compound 8, 7-[4-(2-Bromoacetyl)-piperazin-1-yl]-1-cyclopropyl-6-fluoro-4-oxo-1,4-dihydro-quinoline-3-carboxylic Acid] | 25.6 (≈ 56.6 µM) | 12.8 (≈ 28.3 µM) | 0.8 (≈ 1.77 µM) | 32 (≈ 70.8 µM) | 0.2 (≈ 0.442 µM) | 0.2 (≈ 0.442 µM) | 0.8 (≈ 1.77 µM) | 1.6 (≈ 3.54 µM) | 3.2 (≈ 7.08 µM) | 0.8 (≈ 1.77 µM) | 0.4 (≈ 0.884 µM) | 6.4 (≈ 14.2 µM) | 0.2 (≈ 0.442 µM) | 6.4 (≈ 14.2 µM) | 0.2 (≈ 0.442 µM) | 12.8 (≈ 28.3 µM) | 12.8 to 25.6 (≈ 28.3 to 56.6 µM) | 2–8 fold | 0.4 (≈ 0.884 µM) | > 25.6 | MIC S. epidermidis 5253 ([17]; 18 h): 25.6 µg/mL (≈ 56.6 µM); MIC [21]: 0.2 µg/mL (≈ 0.442 µM); MIC [22]: 0.2 µg/mL (≈ 0.442 µM); MIC [23]: ≤ 1 µg/mL; MIC [24]: 0.4 µg/mL (≈ 0.884 µM); IC50 [25]: 39.6 ± 4.3 µM; MIC [26]: 0.2 µg/mL (≈ 0.442 µM); MIC [27]: 32 µg/mL (≈ 70.8 µM); MIC [28]: 0.2 µg/mL (≈ 0.442 µM); IC50 at 72 h [29]: 44.9 ± 9 µM; MIC [30]: 0.2 µg/mL (≈ 0.442 µM); MIC [31]: 0.1 to 0.8 µg/mL (≈ 0.221 to 1.77 µM)
O=C(O)c1cn(C2CC2)c2cc(N3CCN(C(=O)CCBr)CC3)c(F)cc2c1=O [Compound 9, 7-[4-(3-Bromopropionyl)-piperazin-1-yl]-1-cyclopropyl-6-fluoro-4-oxo-1,4-dihydro-quinoline-3-carboxylic Acid] | > 25.6 | 16 (≈ 34.3 µM) | 0.1 to 0.2 (≈ 0.214 to 0.429 µM) | 2 (≈ 4.29 µM) | 0.4 (≈ 0.858 µM) | 0.8 (≈ 1.72 µM) | 2 (≈ 4.29 µM) | 0.1 to 0.2 (≈ 0.214 to 0.429 µM) | 12.8 (≈ 27.4 µM) | 0.5 (≈ 1.07 µM) | 0.2 (≈ 0.429 µM) | > 25.6 | 0.2 (≈ 0.429 µM) | 64 (≈ 137 µM) | 0.2 (≈ 0.429 µM) | 128 (≈ 274 µM) | 128 (≈ 274 µM) | 8–32 fold | 0.1 (≈ 0.214 µM) | > 25.6 | MIC S. aureus T5595 ([3]; 18 h): 0.2 µg/mL (≈ 0.429 µM); MIC S. aureus T5591 ([8]; 18 h): 0.1 µg/mL (≈ 0.214 µM); MIC [21]: 0.2 µg/mL (≈ 0.429 µM); MIC E. coli 600 ([22]; 18 h): –0.4 μg/mL; MIC [23]: ≤ 1 µg/mL; MIC [24]: 0.5 µg/mL (≈ 1.07 µM); IC50 [25]: 69.1 ± 5.8 µM; MIC [26]: 0.2 µg/mL (≈ 0.429 µM); MIC [27]: 2 µg/mL (≈ 4.29 µM); MIC [28]: 0.1 µg/mL (≈ 0.214 µM); IC50 at 72 h [29]: > 100 µM; MIC [30]: 0.2 µg/mL (≈ 0.429 µM); times more powerful than CP ([31]; S. aureus T5595 and T5591): 1.25–2.5 times; MIC [31]: 0.1 to 0.8 µg/mL (≈ 0.214 to 1.72 µM)
O=C(O)c1cn(C2CC2)c2cc(N3CCN(CCCC(=O)N4CCN(c5cc6c(cc5F)c(=O)c(C(=O)O)cn6C5CC5)CC4)CC3)c(F)cc2c1=O [Compound 18, CP–Butyryl–CP Dimer] | > 25.6 | > 25.6 | 6.4 (≈ 8.76 µM) | 16 (≈ 21.9 µM) | 16 (≈ 21.9 µM) | 1.6 (≈ 2.19 µM) | 0.8 (≈ 1.09 µM) | 6.4 (≈ 8.76 µM) | 4 (≈ 5.47 µM) | 6.4 (≈ 8.76 µM) | 4 (≈ 5.47 µM) | > 25.6 | 3.2 (≈ 4.38 µM) | 6.4 (≈ 8.76 µM) | 16 (≈ 21.9 µM) | 12.8 (≈ 17.5 µM) | > 25.6 | 2–8 fold | 3.2 (≈ 4.38 µM) | > 25.6 | MIC [21]: 2 µg/mL (≈ 2.74 µM); MIC [22]: 0.4 µg/mL (≈ 0.547 µM); MIC [24]: 6.4 µg/mL (≈ 8.76 µM); IC50 [25]: > 100 µM; MIC [26]: 1 µg/mL (≈ 1.37 µM); MIC [27]: 8 µg/mL (≈ 10.9 µM); MIC [28]: 2 µg/mL (≈ 2.74 µM); IC50 at 72 h [29]: 92.2 ± 8.7 µM; MIC [30]: 4 µg/mL (≈ 5.47 µM); MIC [31]: 0.1 to 0.8 µg/mL (≈ 0.137 to 1.09 µM)
